Measured values published in patent publication US7348305B2, “Inhibitor of cardiac tachyarrhythmias” (Department of Veterans Affairs, Rehabilitation, priority 2003, dated 2008).
“Also recorded” adds a separate entry of the source.

What was measured:
[1] = test system: ventricular tachyarrhythmias following LAD coronary artery ligation; test: Model 1: two-stage LAD coronary artery ligation, Holter EKG monitoring 2-24 hr (ventricular triplets, sustained VT/VF, death); type: in vivo, dog
Description: The two-stage ligation procedure results in a very low incidence of ventricular fibrillation (<5-10%) during the initial 6 hours following coronary artery occlusion (Harris et al., 1951). Almost all ventricular fibrillation occurs during the initial 30 minutes with a high proportion of successful defibrillation. Ambulatory EKG monitoring is performed over the 2-24 hr period following coronary artery ligation. During the 6-24 hr period, a 25-40% incidence of rapid monomorphic ventricular tachycardia (385±15/min) leading to ventricular fibrillation is observed at 13.3±0.8 hours post-LAD ligation (FIG. 1), with a mean duration of monomorphic ventricular tachycardia preceding ventricular fibrillation of 66±7 sec. When provocative ventricular pacing is performed at 24 hours, however, the reentrant substrate supporting sustained ventricular tachycardia is present in more than 80% of the surviving dogs with no difference in rate between spontaneous and pacing-induced sustained monomorphic ventricular tachycardias (FIG. 3).
In the 24-hr Infarct (Model 1) Studies, each control and etanercept pretreated animal was monitored for ventricular arrhythmias using a Holter 2-lead recording for the duration of time following LAD ligation. […] In the saline control group, 4 animals died at 11-24 hours post ligation. […]
Model 1: Electrophysiologic correlates of myocardial infarction over a 24-hr period. Eighteen 15-22 kg male mongrel dogs were anesthetized with IV sodium pentobarbital (30 mg/kg). A cuffed endotracheal tube was inserted and the animals were ventilated with room air using a volume-cycled respirator. […] The dogs were extubated and allowed to awaken in a temperature-controlled, humidified small animal post-operative recovery unit. They were given nalbuphine 0.2 mg/kg for post-operative analgesia. During the 2-24 hr period following LAD ligation, Holter monitoring was performed and the two-lead EKG was recorded on magnetic tape. Dogs were re-anesthetized with sodium pentobarbital at 24-hr. The thoracotomy was reopened and the heart was removed and perfused with ice-cold Tyrode's buffer via the left main coronary artery. The outer 0.5-1.5 mm EBZ tissue overlying the infarct was shaved and a longitudinal sample of tissue from the LAD region was stained with triphenyltetrazolium chloride (0.1%) to determine viability of the EBZ. Triphenyltetrazolium (TTZ) forms a brick-red precipitate in the presence of active intracellular dehydrogenases, delineating vital tissue. Non-viable tissues are not stained and remain a pale color. […] Tissue samples from the RS, the EBZ and the infarct tissue were dissected rapidly on an ice-cold surface, placed in freezer vials, and frozen in liquid nitrogen. These samples were then stored at −70° C. for later assay.
EKG Analysis: Full disclosure EKG records were obtained at 10 mm/sec for the entire 2-24 hour post-occlusion period. All measurements and calculations were made by direct visual observation and manual counting.
Anti-TNFα Treatment: A dosage of 2 mg/kg hTNFR:Fc (supplied as etanercept, Amgen, Inc, Thousand Oaks, Calif.) or saline were injected IV into a forepaw vein at 24-hr and again 1-hr prior to LAD ligation. […] This dosage was used after consultation with the pharmaceutical corporate pharmacology section and based on unpublished internal data that this dosage would provide maximal sequestration of tissue and circulating TNFα.

[2] = test system: congestive heart failure; settings: cited from earlier work

In the case of etanercept, the “fastest ventricular triplet rate observed per hour after LAD ligation (FIG. 18, FIG. 32)” value ([1]; 4 to 24 hr after LAD ligation) is reported as “significant reduction”, the “mortality (dogs died of group)” value ([1]; 24 hr after LAD ligation, etanercept 2 mg/kg at -24 and -1 hr, bortezomib 0.0875 mg/kg at -1 and +6 hr, anakinra 10 mg/kg at -1 and +12 hr, control 4 of 10, preliminary) is reported as 0 of 8 and the “frequency of very rapid (≧360 bpm) ventricular triplets” value ([1]; etanercept 2 mg/kg IV 24 and 1 hr before LAD ligation, 4-24 hr (2 to 24 hr) after ligation, n=8, saline 21±6/hr) is reported as 6 ± 1 h⁻¹. For the same substance, the “average frequency of total rapid (≧300 bpm) ventricular triplets” value ([1]; etanercept 2 mg/kg IV 24 and 1 hr before LAD ligation, n=8, saline 152±32/hr) was 45 ± 8 h⁻¹, the “very rapid (≧360 bpm) ventricular triplets versus control (FIG. 31B)” value ([1]; etanercept 2 mg/kg, bortezomib 0.0875 mg/kg) was “significant descrease; also recorded: significant decrease” and the “rapid (>300 bpm) ventricular triplets per hour versus control (FIG. 31A)” value ([1]; etanercept 2 mg/kg, bortezomib 0.0875 mg/kg, anakinra 10 mg/kg) was “significant descrease”. The “idioventricular heart rate on EKG” value ([1]; etanercept-treated dogs versus saline, after LAD ligation (FIG. 16B)) was “slower idioventricular heart rate”, the “development of sustained ventricular tachycardia or fibrillation” value ([1]; etanercept-treated dogs, four saline-treated dogs developed it at 11-24 hours post ligation) was “no etanercept-treated dogs developed sustained ventricular tachycardia or fibrillation” and the “benefit upon functional status or survival in congestive heart failure” value ([2]; human clinical trials (Anker et al., 2002)) was “no significant benefits”. The “safety of administration in patients with heart failure” value ([2]; human, in vivo) was “safe”.
